Here are results for 10 compounds from patent US9234000B2, “Benzylamine derivatives as inhibitors of plasma kallikrein” (KalVista Pharmaceuticals Limited, priority 2011, dated 2016).

Read-outs that look alike come from different tables or passages of the source.

One experiment addresses Human KLK1 (Homo sapiens (Human), UniProt P06870). Put plainly: Determination of the IC50 for KLK1. It is filed as biochemical. The conditions noted are these: Human KLK1, 37° C., substrate H-DVal-Leu-Arg-AFC. The protocol: Determination of the IC50 for KLK1
(§1) KLK1 inhibitory activity in vitro was determined using standard published methods (see e.g. Johansen et al., Int. J. Tiss. Reac. 1986, 8, 185; Shori et al., Biochem. Pharmacol., 1992, 43, 1209; Stürzebecher et al., Biol. Chem. Hoppe-Seyler, 1992, 373, 1025). Human KLK1 (Callbiochem) was incubated at 37° C. with the fluorogenic substrate H-DVal-Leu-Arg-AFC and various concentrations of the test compound. Residual enzyme activity (initial rate of reaction) was determined by measuring the change in optical absorbance at 410 nm and the IC50 value for the test compound was determined.

Another experiment addresses Human plasma kallikrein (Homo sapiens (Human), UniProt P03952). Put plainly: Determination of the IC50 for plasma kallikrein. Type of experiment: biochemical. The conditions noted are these: 37° C., read-out: IC50 (human PKal). The protocol: Determination of the IC50 for Plasma Kallikrein
as §1, with “Plasma kallikrein” for “KLK1”, “Stiirzebecher” for “Stürzebecher”, “plasma kallikrein (Protogen)” for “KLK1 (Callbiochem)”, “H-DPro-Phe-Arg-AFC” for “H-DVal-Leu-Arg-AFC”

The mark [1] stands for this setting: fluorogenic substrate H-DPro-Phe-Arg-AFC.

Human KLK1, sequence (P06870 25-262): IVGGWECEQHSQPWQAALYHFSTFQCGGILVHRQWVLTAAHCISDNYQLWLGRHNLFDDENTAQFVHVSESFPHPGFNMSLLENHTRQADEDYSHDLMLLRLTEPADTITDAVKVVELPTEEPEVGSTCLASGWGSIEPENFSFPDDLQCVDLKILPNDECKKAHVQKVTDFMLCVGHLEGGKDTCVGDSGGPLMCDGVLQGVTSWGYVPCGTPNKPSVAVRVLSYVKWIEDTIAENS
Human plasma kallikrein, sequence (P03952 391-638): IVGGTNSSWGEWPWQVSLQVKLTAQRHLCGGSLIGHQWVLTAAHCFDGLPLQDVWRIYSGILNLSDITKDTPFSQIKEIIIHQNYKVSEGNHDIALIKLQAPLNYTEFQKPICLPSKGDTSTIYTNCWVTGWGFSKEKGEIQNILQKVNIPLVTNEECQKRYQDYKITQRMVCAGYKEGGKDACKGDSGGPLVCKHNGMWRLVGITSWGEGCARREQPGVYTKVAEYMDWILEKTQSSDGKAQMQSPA
Human plasma kallikrein, sequence (P03952 20-390 partner): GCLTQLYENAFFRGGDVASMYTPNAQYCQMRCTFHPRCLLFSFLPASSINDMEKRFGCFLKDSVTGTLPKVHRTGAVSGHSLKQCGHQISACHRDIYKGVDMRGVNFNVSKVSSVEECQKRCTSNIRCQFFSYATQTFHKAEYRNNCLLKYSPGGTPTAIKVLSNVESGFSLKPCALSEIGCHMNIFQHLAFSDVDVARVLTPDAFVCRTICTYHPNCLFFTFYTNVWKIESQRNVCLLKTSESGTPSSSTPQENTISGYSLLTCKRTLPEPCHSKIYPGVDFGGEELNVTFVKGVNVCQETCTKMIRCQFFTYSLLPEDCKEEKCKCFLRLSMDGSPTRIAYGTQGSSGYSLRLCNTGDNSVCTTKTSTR

`CCCCCCNC(=O)N[C@H](Cc1ccc(OCC)cc1)C(=O)N[C@@H](Cc1ccccc1)C(=O)NCc1ccc(CN)cc1` [Example 78, (R)-N-[(S)-1-(4-Aminomethyl-benzylcarbamoyl)-2-phenyl-ethyl]-3-(4-ethoxy-phenyl)-2-(3-hexyl-ureido)-propionamide]: the IC50 against Human KLK1 (Table 13) is > 10 µM; on Human plasma kallikrein (substrate H-DPro-Phe-Arg-AFC) it was 10 µM.
Consider `NCc1ccc(CNC(=O)[C@H](Cc2ccccc2)NC(=O)[C@@H](CC2CCCCC2)NCC(N)=O)cc1` [Example 50, (R)-N-[(S)-1-(4-Aminomethyl-benzylcarbamoyl)-2-phenyl-ethyl]-2-(carbamoylmethyl-amino)-3-cyclohexyl-propionamide], for which the IC50 on Human KLK1 (Table 12) came to 5 µM; on Human plasma kallikrein (setting [1]), 4.3 µM.
In the case of `CCOc1ccc(C[C@@H](NC(=O)c2ccccc2)C(=O)N[C@@H](Cc2ccccc2F)C(=O)NCc2ccc(CN)cc2)cc1` [Example 180, N-[(R)-1-[(S)-1-(4-Aminomethyl-benzylcarbamoyl)-2-(2-fluoro-phenyl)-ethylcarbamoyl]-2-(4-ethoxy-phenyl)-ethyl]-benzamide], the figures for the IC50 at Human KLK1 (Table 13) and on Human plasma kallikrein (substrate H-DPro-Phe-Arg-AFC) were > 10 µM and 0.073 µM, respectively.
With `CCOc1ccc(C[C@@H](NC(=O)CC)C(=O)N[C@@H](Cc2ccccn2)C(=O)NCc2ccc(CN)cc2)cc1` [Example 166, (R)-N-[(S)-1-(4-Aminomethyl-benzylcarbamoyl)-2-pyridin-2-yl-ethyl]-3-(4-ethoxy-phenyl)-2-propionylamino-propionamide], the IC50 against Human KLK1 (Table 13) is > 10 µM; on Human plasma kallikrein (substrate H-DPro-Phe-Arg-AFC) it was 0.262 µM.
As for `CCOc1ccc(C[C@@H](C(=O)N[C@@H](Cc2ccccc2)C(=O)NCc2ccc(CN)cc2)N(C)C(=O)CC)cc1` [Example 66, (S)-N-(4-Aminomethyl-benzyl)-2-[(S)-3-(4-ethoxy-phenyl)-2-(methyl-propionyl-amino)-propionylamino]-3-phenyl-propionamide], the results for the IC50 on Human KLK1 (Table 12) and on Human plasma kallikrein (setting [1]) were 8.4 µM and 10 µM, respectively.
For the compound `CCOc1ccc(C[C@@H](NC(=O)c2ccnc(OC)c2)C(=O)N[C@@H](Cc2ccccc2)C(=O)NCc2ccc(CN)cc2)cc1` [Example 123, N-[(R)-1-[(S)-1-(4-Aminomethyl-benzylcarbamoyl)-2-phenyl-ethylcarbamoyl]-2-(4-ethoxy-phenyl)-ethyl]-2-methoxy-isonicotinamide], the values for the IC50 against Human KLK1 (Table 13) and at Human plasma kallikrein (substrate H-DPro-Phe-Arg-AFC) were > 10 µM and 0.214 µM, respectively.
Turning to `CCOc1ccc(C[C@@H](NC(=O)CC)C(=O)N[C@@H](C(=O)NCc2ccc(CN)cc2)[C@@H](O)c2ccccc2)cc1` [Example 62, (2R,3S)-N-(4-Aminomethyl-benzyl)-2-[(R)-3-(4-ethoxy-phenyl)-2-propionylamino-propionylamino]-3-hydroxy-3-phenyl-propionamide], the IC50 on Human plasma kallikrein (setting [1]) was ≥ 10 µM.
Consider `CCOc1ccc(C[C@H](C(=O)N[C@@H](Cc2ccccc2)C(=O)NCc2ccc(CN)cc2)N(C)C)cc1` [Example 13, (R)-N-[(S)-1-(4-Aminomethyl-benzylcarbamoyl)-2-phenyl-ethyl]-2-dimethylamino-3-(4-ethoxy-phenyl)-propionamide], for which the IC50 on Human plasma kallikrein (setting [1]) turned out to be 10 µM.
On the same count and under the same terms, in the case of `CCOc1ccc(C[C@@H](N)C(=O)N[C@@H](C(=O)NCc2ccc(CN)cc2)[C@@H](O)c2ccccc2)cc1` [Example 60, (R)-2-Amino-N-[(1R,2S)-1-(4-aminomethyl-benzylcarbamoyl)-2-hydroxy-2-phenyl-ethyl]-3-(4-ethoxy-phenyl)-propionamide] it was 10 µM; in that of `CCOc1ccc(C[C@@H](NC(=O)CC)C(=O)N(CC)[C@@H](Cc2ccccc2)C(=O)NCc2ccc(CN)cc2)cc1` [Example 65, (S)-N-(4-Aminomethyl-benzyl)-2-{[(R)-3-(4-ethoxy-phenyl)-2-propionylamino-propionyl]-ethyl-amino}-3-phenyl-propionamide], ≥ 10 µM.
